In data set [1] the test system is Mycobacterium tuberculosis. The experiment in a line: Antimycobacterial activity against Mycobacterium tuberculosis H37Rv ATCC 27294 measured after 28 days by MABA method. It counts as functional. The conditions noted are these: H37Rv ATCC 27294, 672 h.
A short description of data set [2]: Cytotoxicity against HEK293T cells assessed as inhibition of cell viability at 50 ug/ml after 72 hrs by MTT assay relative to control. It counts as toxicity, cell-based, HEK-293T. As to conditions: human, read-out: INH.
A short description of data set [3]: Therapeutic index, ratio of compound cytotoxic activity for HEK293T cells to MIC99 for Mycobacterium tuberculosis H37Rv ATCC 27294. The class given is cell-based, HEK-293T. As to conditions: human, read-out: TI.

Some results are limits rather than exact numbers.

Compound `CCOC(=O)c1c(C)nc2ccc(Cl)cc2c1-c1ccccc1` displayed an MIC99 in data set [1] of 76.7 µM. `c1ccc(-c2cc(-c3ccccc3)c3ccccc3n2)cc1` yielded an MIC99 in data set [1] of 11.1 µM. Besides, the cytotoxicity at 72 h, 50 ug/ml in data set [2] was found to be 18.1%. Take `COC(=O)c1c(C)nc2ccccc2c1-c1ccccc1`: the MIC99 in data set [1] came to 45.1 µM. In addition, the cytotoxicity at 72 h, 50 ug/ml in data set [2] came to 25.6%.

Turning to `Cc1nc2ccccc2c(-c2ccccc2)c1C(=O)c1ccccc1`, in data set [1], the MIC99 is 19.3 µM. Further, in data set [2], the cytotoxicity at 72 h, 50 ug/ml is 22.1%. Regarding `CCOC(=O)c1c(C)nc2ccccc2c1-c1ccccc1`, the MIC99 in data set [1] turned out to be 0.69 µM. Besides, the cytotoxicity at 72 h, 50 ug/ml in data set [2] was 25.6%. In addition, the selectivity ratio in data set [3] is over 250. For `CCOC(=O)c1c(C)nc2ccccc2c1C`, the MIC99 in data set [1] is 109 µM. The compound `c1ccc(-c2c3c(nc4ccccc24)CCC3)cc1` yielded an MIC99 in data set [1] of 25.5 µM. Moreover, the cytotoxicity at 72 h, 50 ug/ml in data set [2] is 30%.

`Cc1nc2ccccc2c(-c2ccccc2)c1C(=O)Nc1ccc(F)cc1` gave an MIC99 in data set [1] of 16.8 µM. Further, the cytotoxicity at 72 h, 50 ug/ml in data set [2] is 12.5%. Consider `O=C1CC(c2ccccc2)Cc2nc3ccccc3c(-c3ccccc3)c21` (stereo unspecified), for which the MIC99 in data set [1] worked out at 35.8 µM. Take `Cc1nc2ccccc2c(-c2ccccc2)c1C(=O)NCc1cccc(F)c1`: in data set [1], the MIC99 stood at 33.8 µM. Take `CC(=O)c1c(C)nc2ccccc2c1-c1ccccc1`: the MIC99 in data set [1] stood at 47.8 µM. In data set [1], `COc1ccc(NC(=O)c2c(C)nc3ccccc3c2-c2ccccc2)cc1` had an MIC99 of 8.48 µM. For the same compound, in data set [2], the cytotoxicity at 72 h, 50 ug/ml was determined as 35.2%. For the compound `Cc1nc2ccccc2c(-c2ccccc2)c1C(=O)Nc1ccccn1`, the MIC99 in data set [1] is 73.7 µM. The compound `COC(=O)c1c(C)nc2ccc(Cl)cc2c1-c1ccccc1` gave an MIC99 in data set [1] of 80.2 µM.

As for `c1ccc(-c2cc(-c3cccs3)nc3ccccc23)cc1`, in data set [1], the MIC99 came out at 21.8 µM. Further, the cytotoxicity at 72 h, 50 ug/ml in data set [2] was found to be 25.5%.

Regarding `Cc1nc2ccccc2c(-c2ccccc2)c1C(=O)OC(C)(C)C`, in data set [1], the MIC99 was 1.22 µM. Besides, the cytotoxicity at 72 h, 50 ug/ml in data set [2] was determined as 13.6%. In the same order, the values of `CC(=O)c1c(C)nc2ccc(Cl)cc2c1-c1ccccc1` are 10.6 µM and 19.9%.

On to `Cc1nc2ccccc2c(-c2ccccc2)c1C(=O)Nc1ccc(Cl)cc1`, for which the MIC99 in data set [1] was 17.5 µM. The cytotoxicity at 72 h, 50 ug/ml in data set [2] was 16.3%. In data set [1], `Cc1nc2ccccc2c(-c2ccccc2)c1C(=O)Nc1ccccc1Br` registered an MIC99 of 15 µM. Besides, in data set [2], the cytotoxicity at 72 h, 50 ug/ml was 15.6%.

In turn, `Cc1nc2ccccc2c(-c2ccccc2)c1C(=O)Nc1ccccc1I` returned an MIC99 in data set [1] of 3.36 µM. In data set [2], the cytotoxicity at 72 h, 50 ug/ml came out at 17.9%.

In data set [1], `CC1(C)CC(=O)c2c(nc3ccccc3c2-c2ccccc2)C1` came in with an MIC99 of 20.7 µM. In addition, in data set [2], the cytotoxicity at 72 h, 50 ug/ml was 22%. In turn, `COc1ccccc1CNC(=O)c1c(C)nc2ccccc2c1-c1ccccc1` returned an MIC99 in data set [1] of over 65.4 µM. Still for that read-out and setting: then `O=C1CCCc2nc3ccccc3c(-c3ccccc3)c21`, with 45.7 µM; and `c1ccc(-c2c3c(nc4ccccc24)CCCCC3)cc1`, with 45.7 µM. `c1ccc(-c2cc(-c3ccco3)nc3ccccc23)cc1` showed an MIC99 in data set [1] of 5.75 µM. The cytotoxicity at 72 h, 50 ug/ml in data set [2] was 34%. `Cc1nc2ccccc2c(-c2ccccc2)c1C(=O)Nc1cccnc1Cl`: in data set [1], the MIC99 was 16.7 µM. In addition, in data set [2], the cytotoxicity at 72 h, 50 ug/ml turned out to be 11.3%. In the case of `Cc1nc2ccccc2c(-c2ccccc2)c1C(=O)Nc1ccc(Br)cc1`, the MIC99 in data set [1] is 30.9 µM. With `Cc1nc2ccccc2c(-c2ccccc2)c1C(=O)NCc1ccccc1`, in data set [1], the MIC99 came to 70.9 µM. In the case of `Cc1nc2ccccc2c(-c2ccccc2)c1C(=O)NCc1ccccc1Cl`, the MIC99 in data set [1] was 4.03 µM. The cytotoxicity at 72 h, 50 ug/ml in data set [2] is 13.6%.

In the case of `Cc1nc2ccccc2c(-c2ccccc2)c1C(=O)Nc1ccccc1F`, the MIC99 in data set [1] amounted to 35.1 µM. On the same count and under the same terms, then `Cc1nc2ccccc2c(-c2ccccc2)c1C(=O)NCc1cccc(Cl)c1`, with 64.6 µM. For the compound `CC1CC(=O)c2c(nc3ccccc3c2-c2ccccc2)C1` (stereo unspecified), in data set [1], the MIC99 was determined as 21.8 µM. For the same compound, the cytotoxicity at 72 h, 50 ug/ml in data set [2] came to 28%. With `Cc1nc2ccccc2c(-c2ccccc2)c1C(=O)NCc1ccc(C(C)(C)C)cc1`, the MIC99 in data set [1] came to 3.82 µM. The cytotoxicity at 72 h, 50 ug/ml in data set [2] is 35.6%. As to `c1ccc(-c2c3c(nc4ccccc24)CCCCCC3)cc1`, in data set [1], the MIC99 came out at 10.9 µM. The cytotoxicity at 72 h, 50 ug/ml in data set [2] was 31.1%. In turn, `c1ccc(-c2c3c(nc4ccccc24)CCCC3)cc1` had an MIC99 in data set [1] of 48.2 µM.

In data set [1], `Cc1nc2ccccc2c(-c2ccccc2)c1C(=O)Nc1ccccc1OC(F)(F)F` had an MIC99 of 29.6 µM. The same measure, in the same setting: for `Cc1nc2ccccc2c(-c2ccccc2)c1C(=O)Nc1ccccc1Cl` the value was 33.5 µM. Turning to `Cc1nc2ccc(Cl)cc2c(-c2ccccc2)c1C(=O)c1ccccc1`, the MIC99 in data set [1] was determined as 8.73 µM. Besides, the cytotoxicity at 72 h, 50 ug/ml in data set [2] is 26.1%.

The compound `COc1ccccc1NC(=O)c1c(C)nc2ccccc2c1-c1ccccc1` yielded an MIC99 in data set [1] of 67.9 µM. For `Cc1nc2ccccc2c(-c2ccccc2)c1C(=O)Nc1ccncc1`, the MIC99 in data set [1] was found to be 18.4 µM. For the same compound, the cytotoxicity at 72 h, 50 ug/ml in data set [2] was 12.6%.

The compound `Cc1ccccc1CNC(=O)c1c(C)nc2ccccc2c1-c1ccccc1` registered an MIC99 in data set [1] of 8.53 µM. The cytotoxicity at 72 h, 50 ug/ml in data set [2] was determined as 20.6%. `Cc1nc2ccccc2c(-c2ccccc2)c1C(=O)Nc1ccccc1`: the MIC99 in data set [1] was 9.23 µM. Also, in data set [2], the cytotoxicity at 72 h, 50 ug/ml was determined as 25.6%. With `CC[C@@H](CO)NCCN[C@@H](CC)CO` [ETHAMBUTOL], the MIC99 in data set [1] came to 1.56 µg/mL. `NNC(=O)c1ccncc1` [ISONIAZID] displayed an MIC99 in data set [1] of 0.098 µg/mL. In turn, `NC(=O)c1cnccn1` [PYRAZINAMIDE] had an MIC99 in data set [1] of 6.25 µg/mL. In the case of `CO[C@H]1/C=C/O[C@@]2(C)Oc3c(C)c(O)c4c(O)c(c(/C=N/N5CCN(C)CC5)c(O)c4c3C2=O)NC(=O)/C(C)=C\C=C\[C@H](C)[C@H](O)[C@@H](C)[C@@H](O)[C@@H](C)[C@H](OC(C)=O)[C@@H]1C` [RIFAMPIN], the MIC99 in data set [1] is 0.197 µg/mL.

Source of the values: ChEMBL document CHEMBL3870331, “Design, development of new synthetic methodology, and biological evaluation of substituted quinolines as new anti-tubercular leads” (Bioorg Med Chem Lett, 2016).
